The values that follow are results of earlier work, collected in US10759976B2, “Color changeable adhesives and methods of making such adhesives” (Sensor International, LLC, priority 2018, dated 2020).

The conditions of the first data set: Table 2, carbon dioxide sensitive pigments/dyes.
By pKa is commonly meant the pH at which an ionisable group is half protonated. Take `O=S(=O)(O)c1cc(O)c2ccc3c(S(=O)(=O)O)cc(S(=O)(=O)O)c4ccc1c2c34` [1, Hydroxypyrene-3,6,8-trisulphonic acid]: the pKa was 8.1.
As to `O=C(O)Cc1cc(=O)oc2cc(O)ccc12` [7-hydroxycoumarin-4-acetic acid], the pKa is on record as 7.8.
Regarding 5′ and 6′-Carboxyseminaphtholrhodamine, the pKa is 7.5.
Take “5′ and 6′-Carboxyseminaphtholfluorescein”: the pKa was 7.4.
Take `O=S1(=O)OC(c2ccc(O)cc2)(c2ccc(O)cc2)c2ccccc21` [Phenol Red, phenolsulfonphthalein]: the pKa was 7.6.
As for o-Cresolphthalein, the pKa is on record as 9.4.
Turning to `Cc1cc(O)c(C(C)C)cc1C1(c2cc(C(C)C)c(O)cc2C)OC(=O)c2ccccc21` [Thymolphthalein, 3,3-bis(4-hydroxy-2-methyl-5-propan-2-ylphenyl)-2-benzofuran-1-one], the pKa is 9.7.
Consider `Cc1cc(O)ccc1C1(c2ccc(O)cc2C)OS(=O)(=O)c2ccccc21` [m-Cresol Purple], for which the pKa is 8.3.
Take `Cc1cc(O)c(C(C)C)cc1C1(c2cc(C(C)C)c(O)cc2C)OS(=O)(=O)c2ccccc21` [Thymol blue, thymolsulphonephthalein]: the pKa is recorded as 9.0.

Still in this data set, the particulars now being: Table 3, fluorimetric pigments/dyes.
`O=S(=O)(O)c1cc(O)c2ccc3c(S(=O)(=O)O)cc(S(=O)(=O)O)c4ccc1c2c34` [1, Hydroxypyrene-3,6,8-trisulphonic acid]: the pKa was 8.1.
On to `NC(=O)NN=Cc1ccccc1O` [salicylaldehyde semicarbazone], for which the pKa was 7.8.

Staying with this data set, now noted: Table 4, ammonia sensitive pigments/dyes.
`Cc1c(C2(c3cc(Br)c(O)c(Br)c3C)OS(=O)(=O)c3ccccc32)cc(Br)c(O)c1Br` [Bromocresol green]: the pKa is on record as 4.7.
As to `O=S1(=O)OC(c2cc(Br)c(O)c(Br)c2)(c2cc(Br)c(O)c(Br)c2)c2ccccc21` [Bromophenol blue], the pKa is 3.9.
For the compound Nitrazine yellow, the pKa is reported as 6.4.
`O=S1(=O)OC(c2ccc(O)c(Cl)c2)(c2ccc(O)c(Cl)c2)c2ccccc21` [Chlorophenol red]: the pKa was 6.3.
Take `CN(C)c1ccc(N=Nc2ccccc2)cc1` [Methyl yellow]: the pKa is listed as 3.3.
On to `O=S1(=O)OC(c2ccc(O)cc2)(c2ccc(O)cc2)c2ccccc21` [Phenol Red, phenolsulfonphthalein], for which the pKa is on record as 7.6.
Regarding `O=C1c2ccccc2C(=O)c2c1ccc(O)c2O` [Alizarin], the pKa is listed as 6.8.
As to `CN(C)c1ccc(N=Nc2ccc(S(=O)(=O)[O-])cc2)cc1.[Na+]` [Methyl Orange], the pKa is reported as 4.2.
On to `O=C1c2ccccc2C(=O)c2c1cc(S(=O)(=O)O)c(O)c2O` [Alizarin red S], for which the pKa is on record as 4.5.
Consider `O=C([O-])c1c(Cl)c(Cl)c(Cl)c(Cl)c1-c1c2cc(Br)c(=O)c(Br)c-2oc2c(Br)c([O-])c(Br)cc12.[Na+].[Na+]` [Phloxine B], for which the pKa is on record as 2.5.
Turning to `Cc1cc(O)ccc1C1(c2ccc(O)cc2C)OS(=O)(=O)c2ccccc21` [m-Cresol Purple], the pKa is 1.5.
For `Cc1cc(O)c(C(C)C)cc1C1(c2cc(C(C)C)c(O)cc2C)OS(=O)(=O)c2ccccc21` [Thymol blue, thymolsulphonephthalein], the pKa is given as 1.6.
Regarding `CCN(CC)c1ccc(N=Nc2ccc(S(=O)(=O)[O-])cc2)cc1.[K+]` [Ethyl orange], the pKa is 4.3.
Take `O=S1(=O)OC(c2cc(Cl)c(O)c(Br)c2)(c2cc(Cl)c(O)c(Br)c2)c2ccccc21` [Bromochlorophenol blue]: the pKa is recorded as 6.0.
As to `CN(C)c1ccc(/N=N/c2ccccc2C(=O)O)cc1` [Methyl red], the pKa was 5.4.
